Test results: ChEMBL document CHEMBL3297706, “Design, synthesis and evaluation of phenethylaminoheterocycles as K(v)1.5 inhibitors” (Bioorg Med Chem Lett, 2014)
Calls of active or inactive are those of the source. The calls are words filed in the database; no cut-off is given here.

Key:
hERG (KCNH2) = hERG (KCNH2) (Homo sapiens, UniProt Q12809); test: Inhibition of human ERG at 10 uM
[1] = target: T1, Potassium voltage-gated channel subfamily A member 5 (Homo sapiens, UniProt P22460); test: Inhibition of human Kv1.5 expressed in mouse L929 cells assessed as inhibition of current; format: cell-based
[2] = Permeability of the compound by PAMPA; format: ADME; conditions: read-out: permeability
[3] = Half life in Sprague-Dawley rat at 10 umol/kg, via carotid artery by LC-MS method; format: ADME, organism-based; conditions: in vivo
[4] = Permeability across apical to basolateral side in human Caco2 cells; format: ADME, cell-based; conditions: Caco-2, read-out: permeability
[5] = Volume of distribution at steady state in Sprague-Dawley rat at 10 umol/kg, via carotid artery by LC-MS method; format: ADME, organism-based; conditions: in vivo, read-out: Vdss
Plasma [6] = test: Plasma concentration in rabbit at 1 mg/kg; format: ADME, organism-based, Oryctolagus cuniculus; parameters: dose 1 mg/kg; conditions: in vivo
[7] = Clearance in Sprague-Dawley rat at 10 umol/kg, via carotid artery by LC-MS method; format: ADME, organism-based; conditions: in vivo
Oryctolagus cuniculus [8] = test: Anti-atrial fibrillation in rabbit assessed as atrial effective refractory period prolongation at 1 mg/kg; format: functional, Cardiac atrium
[9] = Plasma protein binding in rabbit; format: ADME, cell-free, Oryctolagus cuniculus; conditions: read-out: PPB (converted)
[10] = target: T1, Potassium voltage-gated channel subfamily A member 5; test: Inhibition of human Kv1.5 expressed in mouse L929 cells assessed as inhibition of current at 0.3 uM; format: cell-based
Oryctolagus cuniculus [11] = test: Anti-atrial fibrillation in rabbit assessed as increase in heart rate at 1 mg/kg; format: functional
Plasma [12] = test: Plasma concentration in rabbit at 3 mg/kg; format: ADME, organism-based, Oryctolagus cuniculus; parameters: dose 3 mg/kg; conditions: in vivo
Oryctolagus cuniculus [13] = test: Anti-atrial fibrillation in rabbit assessed as increase in heart rate at 3 mg/kg; format: functional
Oryctolagus cuniculus [14] = test: Anti-atrial fibrillation in rabbit assessed as decrease in blood pressure at 3 mg/kg; format: functional
Oryctolagus cuniculus [15] = test: Anti-atrial fibrillation in rabbit assessed as decrease in blood pressure at 1 mg/kg; format: functional
Oryctolagus cuniculus [16] = organism: Oryctolagus cuniculus; test: Anti-atrial fibrillation in rabbit assessed as atrial effective refractory period prolongation; format: functional, organism-based; conditions: Cardiac atrium
Oryctolagus cuniculus [17] = test: Anti-atrial fibrillation in rabbit assessed as atrial effective refractory period prolongation at 3 mg/kg; format: functional, Cardiac atrium
Oryctolagus cuniculus [18] = test: Anti-atrial fibrillation in rabbit assessed as ventricular effective refractory period prolongation at 10 mg/kg; format: functional
Plasma [19] = test: Plasma concentration in rabbit at 10 mg/kg; format: ADME, organism-based, Oryctolagus cuniculus; parameters: dose 10 mg/kg; conditions: in vivo
Oryctolagus cuniculus [20] = test: Anti-atrial fibrillation in rabbit assessed as atrial effective refractory period prolongation at 10 mg/kg; format: functional, Cardiac atrium

T1 sequence (P22460 whole entry): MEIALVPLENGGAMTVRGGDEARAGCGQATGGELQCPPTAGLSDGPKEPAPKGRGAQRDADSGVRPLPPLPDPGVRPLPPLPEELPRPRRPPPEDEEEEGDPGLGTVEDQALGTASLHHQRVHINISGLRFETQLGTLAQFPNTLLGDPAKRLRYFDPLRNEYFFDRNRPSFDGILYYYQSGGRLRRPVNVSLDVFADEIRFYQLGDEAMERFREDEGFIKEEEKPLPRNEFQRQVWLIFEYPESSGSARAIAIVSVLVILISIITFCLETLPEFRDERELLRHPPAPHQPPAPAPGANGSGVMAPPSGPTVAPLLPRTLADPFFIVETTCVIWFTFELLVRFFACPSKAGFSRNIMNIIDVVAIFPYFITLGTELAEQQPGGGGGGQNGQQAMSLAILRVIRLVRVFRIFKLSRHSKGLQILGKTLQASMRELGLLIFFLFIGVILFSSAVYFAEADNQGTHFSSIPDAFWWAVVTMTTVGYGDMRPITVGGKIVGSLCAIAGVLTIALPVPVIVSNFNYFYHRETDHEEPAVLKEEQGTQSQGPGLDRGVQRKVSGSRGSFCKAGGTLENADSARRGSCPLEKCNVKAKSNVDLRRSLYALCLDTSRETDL
Chain of hERG (KCNH2) (Q12809 whole entry): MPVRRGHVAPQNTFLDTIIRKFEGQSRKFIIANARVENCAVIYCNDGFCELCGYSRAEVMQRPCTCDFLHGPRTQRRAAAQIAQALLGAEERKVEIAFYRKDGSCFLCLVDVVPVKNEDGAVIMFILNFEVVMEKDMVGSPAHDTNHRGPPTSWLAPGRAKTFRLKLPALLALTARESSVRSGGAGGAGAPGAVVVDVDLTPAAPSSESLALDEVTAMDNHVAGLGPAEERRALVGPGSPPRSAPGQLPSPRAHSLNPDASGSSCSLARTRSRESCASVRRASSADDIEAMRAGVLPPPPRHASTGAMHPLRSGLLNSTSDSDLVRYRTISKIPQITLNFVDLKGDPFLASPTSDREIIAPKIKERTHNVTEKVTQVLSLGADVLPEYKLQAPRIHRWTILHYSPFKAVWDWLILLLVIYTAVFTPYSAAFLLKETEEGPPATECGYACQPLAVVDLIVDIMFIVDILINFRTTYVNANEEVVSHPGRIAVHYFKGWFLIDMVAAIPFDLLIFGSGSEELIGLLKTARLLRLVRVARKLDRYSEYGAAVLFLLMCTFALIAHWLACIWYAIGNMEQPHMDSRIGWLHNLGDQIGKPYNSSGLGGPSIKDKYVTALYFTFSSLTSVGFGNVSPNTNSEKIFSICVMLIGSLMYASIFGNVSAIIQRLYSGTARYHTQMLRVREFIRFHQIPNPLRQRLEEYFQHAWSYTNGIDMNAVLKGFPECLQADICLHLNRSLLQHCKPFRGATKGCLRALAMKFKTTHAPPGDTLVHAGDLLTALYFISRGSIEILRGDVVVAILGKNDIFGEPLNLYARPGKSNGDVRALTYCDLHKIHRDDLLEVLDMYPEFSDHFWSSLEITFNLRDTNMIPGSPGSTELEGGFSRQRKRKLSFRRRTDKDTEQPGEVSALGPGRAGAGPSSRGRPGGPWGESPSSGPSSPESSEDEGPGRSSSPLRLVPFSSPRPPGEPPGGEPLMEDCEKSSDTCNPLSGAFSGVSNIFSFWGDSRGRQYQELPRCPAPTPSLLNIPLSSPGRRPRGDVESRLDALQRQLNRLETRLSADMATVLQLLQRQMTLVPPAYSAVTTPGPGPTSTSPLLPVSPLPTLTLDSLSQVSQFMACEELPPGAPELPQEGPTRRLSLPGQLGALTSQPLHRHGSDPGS

Compound	inhibition at 10 µM (hERG (KCNH2)) [%]	IC50 [1] [nM]	half-life [3] [h]	Vd [5] [L/kg]	clearance [7] [mL/min/kg]	also measured
COc1cccc2nc(O)nc(NCC(C)(C)c3ccccc3)c12	50	23	–	–	–	Papp [2]: 81.6 ×10⁻⁶ cm/s
COc1cccc2ncnc(NCC(C)(C)c3ccccc3)c12	90	118	–	–	–	–
COc1cccc2c1c(NCC(C)(C)c1ccccc1)nn2C	69	198	2.1	1.7	12	Papp A→B [4]: 2.3 ×10⁻⁶ cm/s; concentration (Plasma [6]): 300 nM; Activity (Oryctolagus cuniculus [8]): 6%; fraction unbound [9]: < 0.001
COc1ccc2onc(NCC(C)(C)c3ccccc3)c2c1	–	–	–	–	–	inhibition [10]: 37%
CCc1cccc2onc(NCC(C)(C)c3ccccc3)c12	–	219	–	–	–	–
CCNC(=O)O[C@H]1CC[C@](CNc2nn(C)c3cccc(OC)c23)(c2ccccc2)CC1	54	88	1.4	0.6	8	–
COc1cccc2oc(=O)nc(NCC(C)(C)c3ccccc3)c12	66	197	0.8	0.7	10	Papp [2]: 69.5 ×10⁻⁶ cm/s
COc1cccc2nc(Cl)nc(NCC(C)(C)c3ccccc3)c12	90	73	–	–	–	–
COc1cccc2[nH]nc(NCC(C)(C)c3ccccc3)c12	–	–	–	–	–	Papp A→B [4]: 9.4 ×10⁻⁶ cm/s; inhibition [10]: 37%
CCNC(=O)O[C@H]1CC[C@](CNc2n[nH]c3cccc(OC)c23)(c2ccccc2)CC1	52	138	1.3	1.4	21	Activity (Oryctolagus cuniculus [11]): 5%; concentration (Plasma [12]): 2400 nM; Activity (Oryctolagus cuniculus [13]): 16%; inhibition in vivo at 3 mg/kg (Oryctolagus cuniculus [14]): 17%; inhibition in vivo at 1 mg/kg (Oryctolagus cuniculus [15]): 7%; concentration (Plasma [6]): 700 nM; Activity (Oryctolagus cuniculus [16]): Dose-dependent effect; Activity (Oryctolagus cuniculus [8]): 15%; Activity (Oryctolagus cuniculus [17]): 22%; fraction unbound [9]: 0.003; Papp [2]: 67 ×10⁻⁶ cm/s; Activity (Oryctolagus cuniculus [18]): inactive
COc1cccc2ccnc(NCC(C)(C)c3ccccc3)c12	99	22	1.8	14	124	–
CC(C)(CNc1noc2ccccc12)c1ccccc1	–	784	–	–	–	Papp A→B [4]: 11.6 ×10⁻⁶ cm/s
COc1cccc2onc(NCC(C)(C)c3ccccc3)c12	–	43	2.4	3.7	22	concentration (Plasma [19]): 8200 nM; Activity (Oryctolagus cuniculus [20]): <5%; fraction unbound [9]: < 0.001; Activity (Oryctolagus cuniculus [18]): <5%
COc1cccc2c1c(NCC(C)(C)c1ccccc1)nn2C(C)C	–	–	–	–	–	inhibition [10]: 42%
COc1cccc2onc(N(C)CC(C)(C)c3ccccc3)c12	–	187	–	–	–	–
COc1ccc2c(NCC(C)(C)c3ccccc3)noc2c1	–	–	–	–	–	Papp A→B [4]: 3.6 ×10⁻⁶ cm/s; inhibition [10]: 21%
CC(C)(CNc1noc2cccc(Cl)c12)c1ccccc1	–	–	–	–	–	inhibition [10]: 33%
COc1cccc2c1C(NCC(C)(C)c1ccccc1)=NC2=O	46	84	0.8	1.1	35	Papp A→B [4]: 27 ×10⁻⁶ cm/s; Papp [2]: 79 ×10⁻⁶ cm/s
CC(C)(CNc1noc2cccc(O)c12)c1ccccc1	–	262	–	–	–	–
COc1cccc2snc(NCC(C)(C)c3ccccc3)c12	68	25	1.8	3.9	28	–
